Experimental data as given in ChEMBL document CHEMBL3137381, “MMV Box Onchocerca lienalis screening set”.

Assays:
Format in all cases: functional
Onchocerca lienalis [1] = assay: MMV: Percent motility assay at a compound concentration of 1.25e-5 M. Activity score legend: 3: Active, 2: Moderately active; 1: Inactive, 0: Toxic; conditions: at 12.5 µM
Onchocerca lienalis [2] = assay: MMV: Percent motility assay at a compound concentration of 1.9e-7 M. Activity score legend: 3: Active, 2: Moderately active; 1: Inactive, 0: Toxic; conditions: at 0.19 µM
Onchocerca lienalis [3] = assay: MMV: Percent motility assay at a compound concentration of 3.1e-6 M. Activity score legend: 3: Active, 2: Moderately active; 1: Inactive, 0: Toxic; conditions: at 3.1 µM
Onchocerca lienalis [4] = assay: MMV: Percent motility assay at a compound concentration of 7.8e-7 M. Activity score legend: 3: Active, 2: Moderately active; 1: Inactive, 0: Toxic; conditions: at 0.78 µM

SMILES | Motility (Onchocerca lienalis [1]) | Motility (Onchocerca lienalis [2]) | Motility (Onchocerca lienalis [3]) | Motility (Onchocerca lienalis [4])
COc1ccc2c(c1)C1(Nc3ccccc3-c3nc4ccccc4n31)C(=O)N2 (centres undefined) | 100% | 100% | 100% | 100%
COc1cccc(Cn2c(Oc3ccccc3)nc3c2c(=O)n(C)c(=O)n3C)c1 | 100% | 100% | 100% | 100%
CCOc1c(Cl)cc(CNCC(O)c2ccccc2)cc1OC (centres undefined) | 100% | 100% | 100% | 100%
OC(CNCC1CCCO1)Cn1c2ccc(Cl)cc2c2cc(Cl)ccc21 (centres undefined) | 100% | 100% | 100% | 100%
COc1ccc2nc(C)cc(Nc3ccccc3O)c2c1 | 100% | 100% | 100% | 100%
CCn1nc(-c2ccc(C(=O)OC)cc2)nc2c(=O)n(C)c(=O)nc1-2 | 100% | 100% | 100% | 100%
CCOc1ccccc1CN1CCc2nc3cc(C(C)(C)C)nn3c(O)c2C1 | 100% | 100% | 100% | 100%
Cc1cc(N2CCCC2)nc(Nc2ccc(NC(=O)CCc3ccccc3)cc2)n1 | 13.33% | 100% | 66.66% | 100%
CN1CCN(c2ncnc3c2[nH]c2ccc(Cl)cc23)CC1 | 100% | 100% | 100% | 100%
CC1(c2ccccc2)Nc2ccccc2-c2nc3ccccc3n21 (centres undefined) | 100% | 100% | 100% | 100%
CC(C)(C)CC(C)(C)NCC(O)COc1ccc(Cl)cc1Cl (centres undefined) | 100% | 100% | 100% | 100%
O=C(Nc1ccc(Br)cc1)Nc1cccc(Cl)c1 | 100% | 100% | 100% | 100%
CN(C)CCNc1cc(-c2ccccc2)nc2ccccc12 | 100% | 100% | 100% | 100%
COc1ccc2nc(C)cc(Nc3ccc(Cl)cc3)c2c1 | 0% | 100% | 100% | 100%
CCC(O)c1ccc(Br)cc1NC(=O)c1cccc(Cl)c1 (centres undefined) | 100% | 100% | 100% | 100%
COc1ccc2nc(C)cc(Nc3cccc(O)c3)c2c1.Cl | 100% | 100% | 100% | 100%
CN(C)CCCNCc1ccc(-c2ccc(F)c(Cl)c2)o1.Cl | 100% | 100% | 100% | 100%
O=c1nc(C=Cc2ccc(Br)cc2)oc2ccccc12 | 100% | 100% | 100% | 100%
COc1ccc2nc(N)nc(C)c2c1 | 100% | 100% | 100% | 100%

SMILES | Motility (Onchocerca lienalis [1]) | Motility (Onchocerca lienalis [2]) | Motility (Onchocerca lienalis [3]) | Motility (Onchocerca lienalis [4])
Cc1sc2ncnc(Sc3nc4ccccc4[nH]3)c2c1C | 100% | 100% | 100% | 100%
CCC(=O)Nc1nnc(Cc2ccc(OC)c(OC)c2)s1 | 100% | 100% | 100% | 100%
CC(=O)Nc1nnc(SCc2c(C)cc(C(C)(C)C)cc2C)s1 | 100% | 100% | 100% | 100%
O=C(Nc1ccc(CN2CCOCC2)cc1)c1ccc(-c2cc(Cl)ccc2Cl)o1 | 100% | 100% | 100% | 100%
Cc1cc(Nc2cccc(F)c2)nc(NCc2ccccc2)n1 | 33.33% | 100% | 100% | 100%
COc1cccc(C(=O)Nc2ccc(-c3nc4ccccc4[nH]3)cc2)c1 | 100% | 100% | 100% | 100%
COCCn1c(C)nc2ccccc2c1=O | 100% | 100% | 100% | 100%
O=C(Nc1cccc(-c2nc3ccccc3[nH]2)c1)c1cccc(NC(=O)c2ccco2)c1 | 100% | 100% | 100% | 100%
O=C(NC1CCN(Cc2ccccc2)CC1)c1cc(-c2cccnc2)nc2ccc(Cl)cc12 | 100% | 100% | 100% | 100%
CCN(Cc1ccccc1)C1CCN(Cc2cc(Br)ccc2O)CC1.O=C(O)C(=O)O | 100% | 100% | 100% | 100%
CCOc1ccccc1NC(=O)CN1CCN(C(=O)c2ccco2)CC1 | 100% | 100% | 100% | 100%
COc1ccc(-c2nonc2NC(=O)c2cccc(Cl)c2)cc1OC | 100% | 100% | 100% | 100%
Cc1cc(NC(=O)c2ccc(-c3ccccc3)cc2)no1 | 100% | 100% | 100% | 100%
CCOc1cc2c(cc1OCC)C(c1cc(C)c(O)c(C)c1)NCC2.Cl (centres undefined) | 100% | 100% | 100% | 100%
O=C1CC(O)(C(F)(F)C(F)(F)F)Oc2ccccc21 (centres undefined) | 100% | 100% | 100% | 100%
COc1cc(SC)ccc1C(=O)N1CCCC(C)C1 (centres undefined) | 100% | 100% | 100% | 100%
CC(C)c1ccc(CNCC(O)c2ccccc2)cc1.Cl (centres undefined) | 100% | 100% | 100% | 100%
CCOc1cc2c(cc1OCC)C(c1cc(Cl)c(O)c(OCC)c1)NCC2 (centres undefined) | 100% | 100% | 100% | 100%
Cc1ccc(NC(=O)Nc2cccc(Cl)c2)cc1F | 100% | 100% | 100% | 100%

SMILES | Motility (Onchocerca lienalis [1]) | Motility (Onchocerca lienalis [2]) | Motility (Onchocerca lienalis [3]) | Motility (Onchocerca lienalis [4])
O=C(O)C(=O)O.Oc1ccc(Br)cc1CN1CCN(Cc2cccc(F)c2)CC1 | 100% | 100% | 100% | 100%
O=c1nc(C=Cc2ccc(Cl)cc2)oc2ccccc12 | 100% | 100% | 100% | 100%
O=C(NCc1ccco1)C1CCN(S(=O)(=O)c2ccc(Br)cc2)CC1 | 100% | 100% | 100% | 100%
CN(C)c1ccc(N2C(N)=NC(N)=NC2(C)C)cc1 | 100% | 100% | 100% | 100%
COc1ccc(Nc2nc(NCc3ccccc3)c3ccccc3n2)cc1 | 33.33% | 100% | 100% | 100%
COc1cc2c(cc1OC)C1=NNC(=O)C1=NC(C)(C)C2 | 100% | 100% | 100% | 100%
Oc1c(CN2CCN(c3ccccc3F)CC2)cc(Br)c2cccnc12 | 66.66% | 100% | 100% | 100%
Cl.OC(CNCc1ccccc1)Cn1c2ccccc2c2ccccc21 (centres undefined) | 100% | 100% | 100% | 100%
Oc1c2c(nc3cc(-c4ccccc4)nn13)CCCC2 | 100% | 100% | 100% | 100%
CCCCc1c(C)nc2c(OC)cccc2c1O | 100% | 100% | 100% | 100%
Clc1ccc2c(N3CCCC3)ccnc2c1 | 100% | 100% | 100% | 100%
CCOC(=O)C1CCN(C(=O)CN2C(=O)c3ccccc3C2c2c[nH]c3ccccc23)CC1 (centres undefined) | 100% | 100% | 100% | 100%
CCOc1ccc(CCNC(=O)c2cccs2)cc1OCC | 100% | 100% | 100% | 100%
O=c1c2c([nH]c3ccccc13)CCCC2 | 100% | 100% | 100% | 100%
CCCCOc1ccc(C(=O)Nc2cc(C)on2)cc1 | 100% | 100% | 100% | 100%
Br.CCN(CC)S(=O)(=O)c1ccc(-c2csc(Nc3ccc(C)c(C)c3)n2)cc1 | 100% | 100% | 100% | 100%
Cc1c(C)n(CC(O)CNC2CCCCC2C)c2ccccc12 (centres undefined) | 100% | 100% | 100% | 100%
CCCCN(CCCC)S(=O)(=O)c1ccc(NC(=O)c2ccco2)cc1 | 100% | 100% | 100% | 100%
